Results from patent publication US20230416225A1, “DIAMINOPYRIMIDINE CARBOXAMIDE INHIBITORS OF HPK1” (MERCK SHARP & DOHME LLC, priority 2020, published 2023).
Blank lines part the entries; values can stand above or below the compound they belong to.

Biological target: T1, Human HPK1, catalytic domain (Homo sapiens, UniProt Q92918)
T1 construct: purchased Carna
T1 sequence (Q92918 1-346): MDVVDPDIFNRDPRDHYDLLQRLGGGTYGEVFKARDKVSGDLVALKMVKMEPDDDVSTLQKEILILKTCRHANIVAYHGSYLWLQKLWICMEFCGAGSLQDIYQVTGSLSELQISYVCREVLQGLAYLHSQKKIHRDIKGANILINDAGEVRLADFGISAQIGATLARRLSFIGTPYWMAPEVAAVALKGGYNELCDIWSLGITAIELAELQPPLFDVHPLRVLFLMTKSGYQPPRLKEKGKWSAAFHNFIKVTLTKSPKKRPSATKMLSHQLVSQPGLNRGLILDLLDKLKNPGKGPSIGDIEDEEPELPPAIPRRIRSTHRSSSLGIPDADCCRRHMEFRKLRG
Experiment: HPK1-SLP76 TR-FRET assay
Type: biochemical
Details: 75 pM HPK1, 10 uM ATP, 10 nM SLP76, 30 min compound pre-incubation

SMILES: COc1cc2c(cc1Nc1ncc(C(N)=O)c(NC3CC4CCC(C3)N4)n1)CN(C)CC2 (stereo not shown) [Example 26-27, 4-[(8-azabicyclo[3.2.1]octan-3-yl)amino]-2-[(6-methoxy-2-methyl-1,2,3,4-tetrahydroisoquinolin-7-yl)amino]pyrimidine-5-carboxamide]
IC50: 106 nM

SMILES: Cn1cc(Nc2ncc(C(N)=O)c(Nc3cccc4c3CCNC4)n2)cn1 [Example 7-12, 2-[(1-methyl-1H-pyrazol-4-yl)amino]-4-[(1,2,3,4-tetrahydroisoquinolin-5-yl)amino]pyrimidine-5-carboxamide]
IC50: 1.86 nM

SMILES: COc1cc2c(cc1Nc1ncc(C(N)=O)c(Nc3ccccc3Br)n1)CN(CC(F)(F)F)CC2 [Example 10-2, 4-((2-bromophenyl)amino)-2-((6-methoxy-2-(2,2,2--trifluoroethyl)-1,2,3,4-tetrahydroisoquinolin-7-yl)amino)pyrimidine-5-carboxamide]
IC50: 246 nM

SMILES: COc1cc2c(cc1Nc1ncc(C(N)=O)c(NCc3ccc(C(F)(F)F)cc3)n1)CN(C)CC2 [Example 26-61, 2-[(6-methoxy-2-methyl-1,2,3,4-tetrahydroisoquinolin-7-yl)amino]-4-({[4-(trifluoromethyl)phenyl]methyl}amino)pyrimidine-5-carboxamide]
IC50: 146 nM

SMILES: COc1cc2c(cc1Nc1ncc(C(N)=O)c(NC3CCc4c(F)ccc(F)c43)n1)CN(C)CC2 (stereo not shown) [Example 26-70, 4-[(4,7-difluoro-2,3-dihydro-1H-inden-1-yl)amino]-2-[(6-methoxy-2-methyl-1,2,3,4-tetrahydroisoquinolin-7-yl)amino]pyrimidine-5-carboxamide]
IC50: 2.71 nM

SMILES: COc1ccc(S(C)(=O)=O)cc1Nc1ncc(C(N)=O)c(Nc2cccc3c2CCN(C)C3)n1 [Example 7-61, 2-{[2-methoxy-5-(methylsulfonyl)phenyl]amino}-4-[(2-methyl-1,2,3,4-tetrahydroisoquinolin-5-yl)amino]pyrimidine-5-carboxamide]
IC50: 108 nM

SMILES: Cn1ncc(Nc2ncc(C(N)=O)c(Nc3cccc4c3CCNC4=O)n2)c1C(F)F [Example 7-54, 2-{[5-(difluoromethyl)-1-methyl-1H-pyrazol-4-yl]amino}-4-[(1-oxo-1,2,3,4-tetrahydroisoquinolin-5-yl)amino]pyrimidine-5-carboxamide]
IC50: 82.5 nM

SMILES: CCn1cc(Cl)c(Nc2nc(Nc3cc4c(cc3OC)CCN(C)C4)ncc2C(N)=O)n1 [Example 7-87, 4-((4-chloro-1-ethyl-1H-pyrazol-3-yl)amino)-2-((6-methoxy-2-methyl-1,2,3,4-tetrahydroisoquinolin-7-yl)amino)pyrimidine-5-carboxamide]
IC50: 4.78 nM

SMILES: Cc1cccc(Nc2ncc(C(N)=O)c(Nc3cccc4c3CCNC4=O)n2)c1C [Example 25-11, 2-[(2,3-dimethylphenyl)amino]-4-[(1-oxo-1,2,3,4-tetrahydroisoquinolin-5-yl)amino]pyrimidine-5-carboxamide]
IC50: 71 nM

SMILES: CC(C)n1cc(Nc2ncc(C(N)=O)c(Nc3cccc4c3CCNC4=O)n2)cn1 [Example 7-50, 4-[(1-oxo-1,2,3,4-tetrahydroisoquinolin-5-yl)amino]-2-{[1-(propan-2-yl)-1H-pyrazol-4-yl]amino}pyrimidine-5-carboxamide]
IC50: 6.24 nM

SMILES: COc1cc2c(cc1Nc1ncc(C(N)=O)c(Nc3ccccc3Br)n1)CN(C(=O)CC(F)(F)F)CC2 [Example 12-11, 4-[(2-bromophenyl)amino]-2-{[6-methoxy-2-(3,3,3-trifluoropropanoyl)-1,2,3,4-tetrahydroisoquinolin-7-yl]amino}pyrimidine-5-carboxamide]
IC50: 11.1 nM

SMILES: N#CC1(c2ccc(Nc3ncc(C(N)=O)c(Nc4ccccc4Br)n3)cc2)CC1 [Example 7-100, 4-[(2-bromophenyl)amino]-2-{[4-(1-cyanocyclopropyl)phenyl]amino} pyrimidine-5-carboxamide]
IC50: 30 nM

SMILES: COc1cc2c(cc1Nc1ncc(C(N)=O)c(Nc3ccccc3Br)n1)CN(C(=O)C1CCC1)CC2 [Example 12-9, 4-[(2-bromophenyl)amino]-2-{[2-(cyclobutanecarbonyl)-6-methoxy-1,2,3,4-tetrahydroisoquinolin-7-yl]amino}pyrimidine-5-carboxamide]
IC50: 172 nM

SMILES: NC(=O)c1cnc(NCc2c(Cl)cccc2Cl)nc1Nc1cccc2c1CCNC2=O [Example 25-24, 2-{[(2,6-dichlorophenyl)methyl]amino}-4-[(1-oxo-1,2,3,4-tetrahydroisoquinolin-5-yl)amino]pyrimidine-5-carboxamide]
IC50: 230 nM

Now those with a lower IC50, led by results:

IC50: 0.12 nM
SMILES: COc1cc2c(cc1Nc1ncc(C(N)=O)c(Nc3c(F)cccc3C3CCOCC3)n1)CN(C)CC2 [Example 13-12, 4-{[2-fluoro-6-(oxan-4-yl)phenyl]amino}-2-[(6-methoxy-2-methyl-1,2,3,4-tetrahydroisoquinolin-7-yl)amino]pyrimidine-5-carboxamide]

IC50: 0.11 nM
SMILES: Cc1cccc(F)c1Nc1nc(Nc2cc3c(cc2F)CCN(C)C3)ncc1C(N)=O [Example 4-6]

IC50: 0.09 nM
SMILES: COc1cc2c(cc1Nc1ncc(C(N)=O)c(Nc3ccccc3Br)n1)CNCC2 [Example 9-1, 4-[(2-bromophenyl)amino]-2-[(6-methoxy-1,2,3,4-tetrahydroisoquinolin-7-yl)amino]pyrimidine-5-carboxamide]

IC50: 0.13 nM
SMILES: N#CC1(c2ccc(Nc3ncc(C(N)=O)c(Nc4cccc5c4CCNC5)n3)cc2)CC1 [Example 7-15, 2-{[4-(1-cyanocyclopropyl)phenyl]amino}-4-[(1,2,3,4-tetrahydroisoquinolin-5-yl)amino]pyrimidine-5-carboxamide]

IC50: 0.56 nM
SMILES: COc1cc2c(cc1Nc1ncc(C(N)=O)c(Nc3cccc(CNC(=O)C4(F)CC4)c3)n1)CN(C)CC2 [Example 3-1, 4~[(3~{[(1-fluorocyclo-propane-1-carbonyl)amino]-methyl}phenyl)amino]-2-[(6-methoxy-2-methyl-1,2,3,4-tetrahydroiso-quinolin-7-yl)amino]-pyrimidine-5-carboxamide]

IC50: 0.23 nM
SMILES: NC(=O)c1cnc(Nc2ccc3c(c2)CNCC3)nc1NC1CCc2cc(F)c(F)cc21 (stereo not shown) [Example 26-53, 4-[(5,6-difluoro-2,3-dihydro-1H-inden-1-yl)amino]-2-[(1,2,3,4-tetrahydroisoquinolin-7-yl)amino]pyrimidine-5-carboxamide]

IC50: 1.32 nM
SMILES: COc1cc2c(cc1Nc1ncc(C(N)=O)c(N[C@H](C)C3CCCCC3)n1)CN(C)CC2 [Example 26-6, 4-{[(1R)-1-cyclohexylethyl]amino}-2-[(6-methoxy-2-methyl-1,2,3,4-tetrahydroisoquinolin-7-yl)amino]pyrimidine-5-carboxamide]

IC50: 1.48 nM
SMILES: NC(=O)c1cnc(Nc2cnn(CC3CC3)c2)nc1Nc1cccc2c1CCNC2 [Example 7-8, 2-{[1-(cyclopropylmethyl)-1H-pyrazol-4-yl]amino}-4-[(1,2,3,4-tetrahydroisoquinolin-5-yl)amino]pyrimidine-5-carboxamide]

IC50: 0.34 nM
SMILES: COc1cc2c(cc1Nc1ncc(C(N)=O)c(Nc3cccc(CN)c3)n1)CN(C)CC2 [Example 2-2, 4-{[3-(aminomethyl)phenyl]-amino}-2-[(6-methoxy-2-methyl-1,2,3,4-tetrahydroisoquinolin-7-yl)amino]pyrimidine-5-carboxamide]

IC50: 0.34 nM
SMILES: C#C[C@H]1CC[C@@H](Nc2nc(Nc3cc4c(cc3OC)CCN(C)C4)ncc2C(N)=O)CC1 [Example 26-39, 4-[(cis-4-ethynylcyclohexyl)amino]-2-[(6-methoxy-2-methyl-1,2,3,4-tetrahydroisoquinolin-7-yl)amino]pyrimidine-5-carboxamide]

IC50: 1.26 nM
SMILES: COc1cc(C2CCCN2)ccc1Nc1ncc(C(N)=O)c(Nc2ccccc2C(F)(F)F)n1 (stereo not shown) [Example 8-1, 2-((2-Methoxy-4-(pyrrolidin-2-yl)phenyl)amino)-4-((2-(trifluoromethyl)phenyl)amino)pyrimidine-5-carboxamide]

IC50: 0.51 nM
SMILES: COc1cc2c(cc1Nc1ncc(C(N)=O)c(NCc3c(F)ccc(F)c3F)n1)CN(C)CC2 [Example 26-45, 2-[(6-methoxy-2-methyl-1,2,3,4-tetrahydroisoquinolin-7-yl)amino]-4-{[(2,3,6-trifluorophenyl)methyl]amino}pyrimidine-5-carboxamide]

IC50: 0.4 nM
SMILES: COc1cc2c(cc1Nc1ncc(C(N)=O)c(Nc3ccccc3CC3(C#N)CCC3)n1)CN(C)CC2 [Example 13-11, 4-({2-[(1-cyanocyclobutyl)methyl]phenyl}amino)-2-[(6-methoxy-2-methyl-1,2,3,4-tetrahydroisoquinolin-7-yl)amino]pyrimidine-5-carboxamide]

IC50: 0.26 nM
SMILES: COc1cc2c(cc1Nc1ncc(C(N)=O)c(NC3CCCCCC3)n1)CN(C)CC2 [Example 26-1, 4-(cycloheptylamino)-2-[(6-methoxy-2-methyl-1,2,3,4-tetrahydroisoquinolin-7-yl)amino]pyrimidine-5-carboxamide]

IC50: 1.44 nM
SMILES: COc1cc2c(cc1Nc1ncc(C(N)=O)c(Nc3ccccc3CN3CCOCC3)n1)CN(C)CC2 [Example 7-99, 2-[(6-methoxy-2-methyl-1,2,3,4-tetrahydroisoquinolin-7-yl)amino]-4-({2-[(morpholin-4-yl)methyl]phenyl}amino)pyrimi-dine-5-carboxamide]

IC50: 0.57 nM
SMILES: Cc1cc(Nc2ncc(C(N)=O)c(Nc3cccc4c3CCNC4=O)n2)ccc1C1CC1 [Example 25-12, 2-[(4-cyclopropyl-3-methylphenyl)amino]-4-[(1-oxo-1,2,3,4-tetrahydroisoquinolin-5-yl)amino]pyrimidine-5-carboxamide]

IC50: 0.3 nM
SMILES: CC(C)(C)c1ccc(Nc2ncc(C(N)=O)c(Nc3cccc4c3CCNC4=O)n2)cc1 [Example 25-35, 2-[(4-tert-butylphenyl)amino]-4-[(1-oxo-1,2,3,4-tetrahydroisoquinolin-5-yl)amino]pyrimidine-5-carboxamide]
